For the test, the system named is SW684. Description: relative viability vs DMSO control (72 h) (fraction); higher = more viable cells. The method in brief:
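Relative viability was measured with ATPLite and expressed as percent growth, averaged across up to triplicate wells. Sarcoma cell lines had been seeded in 384-well plates to reach 80–90% confluence, dosed after 24 h, and incubated 72 h at 37 °C, 5% CO2. All data were rescaled on a scale where 1 is full and 0 is none.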

Each structure is given as a SMILES string. ± gives the standard deviation of the averaged measurements.

Consider `C=CC(=O)Nc1cccc(Oc2nc(Nc3ccc(N4CCN(C)CC4)cc3)nc3ccsc23)c1` [Olmutinib], for which the relative viability was 1.07 ± 0.043 (0.00017 µM); 1.14 ± 0.069 (0.00051 µM); 1.08 ± 0.029 (0.00152 µM); 1.15 ± 0.061 (0.00457 µM); 1.05 ± 0.014 (0.01372 µM); 1.09 ± 0.025 (0.04115 µM). Also, the relative viability amounted to 1.149 ± 0.0031 (0.1235 µM); 1.14 ± 0.073 (0.3704 µM); 1.07 ± 0.049 (1.111 µM); 0.849 ± 0.032 (3.333 µM); 0.0282 ± 0.0066 (10 µM).
As to `CNC(=O)c1cc(Oc2ccc(NC(=O)Nc3ccc(Cl)c(C(F)(F)F)c3)c(F)c2)ccn1` [Regorafenib], the relative viability (0.00017 µM) was determined as 1.194 ± 0.0028; the relative viability (0.00051 µM) was found to be 1.23 ± 0.02; the relative viability (0.00152 µM) was found to be 1.22 ± 0.013; the relative viability (0.00457 µM) turned out to be 1.24 ± 0.049; the relative viability (0.01372 µM) came to 1.21 ± 0.036; the relative viability (0.04115 µM) was 1.15 ± 0.031. This compound also displayed a relative viability (0.1235 µM) of 1.21 ± 0.049; a relative viability (0.3704 µM) of 1.24 ± 0.036; a relative viability (1.111 µM) of 1.32 ± 0.054; a relative viability (3.333 µM) of 1.3 ± 0.03; a relative viability (10 µM) of 0.772 ± 0.016.
For `COc1cc2c(cc1O)CCN[C@]21CS[C@@H]2c3c(OC(C)=O)c(C)c4c(c3[C@H](COC1=O)N1[C@@H]2[C@H]2c3c(cc(C)c(OC)c3O)C[C@@H]([C@@H]1O)N2C)OCO4` [Trabectedin], the relative viability runs as follows: (2 pM) 1.22 ± 0.037; (5 pM) 1.2 ± 0.027; (15 pM) 1.22 ± 0.047; (50 pM) 1.18 ± 0.06; (0.00014 µM) 1.2 ± 0.045; (0.00041 µM) 1.1605 ± 0.00091. The relative viability is, setting by setting: (0.0012 µM) 0.64 ± 0.054; (0.0037 µM) 0.811 ± 0.043; (0.011 µM) 0.84 ± 0.038; (200 fM) 1.17 ± 0.051; (600 fM) 1.2 ± 0.071.
